Counter-ions that a name gives are not always drawn.
Columns and labels:
A549 cells [1] = experiment: Western blot of BCL2, cIAP1 and cIAP2 expression in A549 cells; assay type: cell-based; conditions: 24 h
A549 cells [2] = experiment: Caspase activation in A549 cells; assay type: cell-based; conditions: cisplatin 12.5 μM 24 h
A549 cells [3] = experiment: Random cell migration / 3D collagen-I invasion of A549 cells; assay type: cell-based; conditions: for cell migration/invasiveness: inhibitors 10 μM
[4] = molecular target: RSK4 N-terminal kinase domain (RSK4-NTKD) (Homo sapiens, UniProt Q9UK32); experiment: Differential scanning fluorimetry; assay type: binding; conditions: inactive/dephosphorylated (APO) vs fully-active (ATP)
RSK4 [5] = molecular target: T1, RSK4 (Homo sapiens, UniProt Q9UK32); experiment: biochemical; conditions: for activity in RSK4 HTRF-activation assay (inhibitor or inactive): floxacin family members
[6] = tested on: patients undergoing chemotherapy; experiment: Retrospective overall survival analysis of the SIGNIFICANT trial; assay type: in vivo, human
cIAP1 and cIAP2 = experiment: Cellular cIAP1 and cIAP2 expression after levofloxacin; assay type: cell-based; conditions: concentrations achievable from the clinical trial dose
ERK = ERK (Homo sapiens, UniProt P28482); experiment: ERK activity; assay type: biochemical
RSK4 [7] = molecular target: T1, RSK4; assay type: biochemical
A549 cells [8] = experiment: Cisplatin/taxol sensitisation of A549 cells; assay type: cell-based
RSK1 = RSK1 (Homo sapiens, UniProt Q15418); experiment: RSK1 activation in cells; assay type: cell-based; conditions: preliminary data
A549-Luc xenograft = experiment: A549-Luc subcutaneous xenograft in nude mice; assay type: in vivo; conditions: 30 mg/kg daily oral gavage, 14 days
bladder cancer explants = experiment: Patient-derived bladder cancer explants; conditions: synergistic in two, additive in one
panel of 140 kinases = experiment: In-vitro activity screen against a panel of 140 kinases; assay type: biochemical; conditions: 10 μM

T1 sequence (Q9UK32 whole entry): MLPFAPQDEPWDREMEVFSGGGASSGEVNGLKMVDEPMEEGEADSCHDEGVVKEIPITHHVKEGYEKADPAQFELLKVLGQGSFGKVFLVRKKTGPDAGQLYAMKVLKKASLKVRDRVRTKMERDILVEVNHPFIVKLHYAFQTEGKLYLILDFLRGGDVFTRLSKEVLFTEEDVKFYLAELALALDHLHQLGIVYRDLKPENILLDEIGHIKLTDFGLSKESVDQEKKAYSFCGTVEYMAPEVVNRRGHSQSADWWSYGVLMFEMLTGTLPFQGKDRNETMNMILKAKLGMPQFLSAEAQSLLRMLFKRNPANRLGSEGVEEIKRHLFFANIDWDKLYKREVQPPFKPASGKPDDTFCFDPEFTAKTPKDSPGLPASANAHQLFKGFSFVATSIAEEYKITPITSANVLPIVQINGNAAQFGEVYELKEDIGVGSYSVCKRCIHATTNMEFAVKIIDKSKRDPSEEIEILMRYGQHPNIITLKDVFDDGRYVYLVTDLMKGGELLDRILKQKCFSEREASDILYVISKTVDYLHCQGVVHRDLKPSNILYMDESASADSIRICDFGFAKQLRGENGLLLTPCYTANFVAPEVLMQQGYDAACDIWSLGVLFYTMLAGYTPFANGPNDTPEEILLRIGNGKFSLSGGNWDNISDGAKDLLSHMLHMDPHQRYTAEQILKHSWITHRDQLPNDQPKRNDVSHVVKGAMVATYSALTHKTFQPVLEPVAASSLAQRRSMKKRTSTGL
RSK4 N-terminal kinase domain (RSK4-NTKD), sequence (Q9UK32 48-349): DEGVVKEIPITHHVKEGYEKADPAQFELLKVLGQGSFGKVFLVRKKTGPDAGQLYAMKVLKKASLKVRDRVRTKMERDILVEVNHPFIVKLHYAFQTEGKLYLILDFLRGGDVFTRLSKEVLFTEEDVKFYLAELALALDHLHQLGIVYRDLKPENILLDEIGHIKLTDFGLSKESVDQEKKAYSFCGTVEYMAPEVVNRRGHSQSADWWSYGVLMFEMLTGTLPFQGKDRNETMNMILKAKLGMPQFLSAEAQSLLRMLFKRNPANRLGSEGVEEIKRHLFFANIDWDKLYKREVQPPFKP
RSK1, sequence (Q15418 whole entry): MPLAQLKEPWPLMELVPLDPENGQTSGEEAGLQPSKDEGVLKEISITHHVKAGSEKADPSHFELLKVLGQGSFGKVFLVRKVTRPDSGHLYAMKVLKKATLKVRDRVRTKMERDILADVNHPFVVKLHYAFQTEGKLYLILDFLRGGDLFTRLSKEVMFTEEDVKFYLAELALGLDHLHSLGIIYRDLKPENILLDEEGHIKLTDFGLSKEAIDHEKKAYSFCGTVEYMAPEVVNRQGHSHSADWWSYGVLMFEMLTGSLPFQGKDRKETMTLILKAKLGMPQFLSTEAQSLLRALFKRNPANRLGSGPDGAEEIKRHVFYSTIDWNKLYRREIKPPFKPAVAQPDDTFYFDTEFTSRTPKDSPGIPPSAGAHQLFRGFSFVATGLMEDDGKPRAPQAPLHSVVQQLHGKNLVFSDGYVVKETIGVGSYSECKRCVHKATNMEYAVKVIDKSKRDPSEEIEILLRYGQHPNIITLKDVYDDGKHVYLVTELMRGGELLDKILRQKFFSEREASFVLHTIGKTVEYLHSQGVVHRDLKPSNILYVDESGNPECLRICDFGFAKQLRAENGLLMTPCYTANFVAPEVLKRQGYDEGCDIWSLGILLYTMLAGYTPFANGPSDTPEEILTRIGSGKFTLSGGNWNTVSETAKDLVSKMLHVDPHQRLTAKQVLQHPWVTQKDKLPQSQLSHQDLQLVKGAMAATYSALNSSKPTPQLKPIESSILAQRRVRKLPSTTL
ERK, sequence (P28482 whole entry): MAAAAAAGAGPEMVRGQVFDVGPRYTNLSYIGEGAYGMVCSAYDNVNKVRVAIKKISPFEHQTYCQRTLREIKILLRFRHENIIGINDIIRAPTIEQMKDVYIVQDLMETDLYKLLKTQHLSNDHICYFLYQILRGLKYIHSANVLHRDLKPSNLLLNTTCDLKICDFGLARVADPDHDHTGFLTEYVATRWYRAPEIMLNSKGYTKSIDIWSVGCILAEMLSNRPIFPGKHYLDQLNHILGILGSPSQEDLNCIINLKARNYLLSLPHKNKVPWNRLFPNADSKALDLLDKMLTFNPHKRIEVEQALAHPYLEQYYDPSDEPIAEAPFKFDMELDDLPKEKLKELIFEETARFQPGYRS

SMILES: CC(C)CCN1c2nc(Nc3cc(F)c(O)c(F)c3)ncc2N(C)C(=O)C1C (centres unmarked) [BI-D1870]
- expression of BCL2 and cIAP1/2 (A549 cells [1]): an effect not seen
- caspase activation in response to cisplatin (A549 cells [2]): failed to promote cisplatin-induced caspase activation

SMILES: CC(=O)O[C@@H]1[C@@H](OC(C)=O)[C@@H](O)[C@H](Oc2c(-c3ccc(O)cc3)oc3cc(O)cc(O)c3c2=O)O[C@H]1C [SL-0101]
- invasiveness of A549 cells with pan-RSK inhibitor (A549 cells [3]): promotes lung cancer invasiveness

SMILES: O=C(O)c1cn(C2CC2)c2cc(N3CCNCC3)c(F)cc2c1=O [ciprofloxacin]
- expression of BCL2 and cIAP1/2 (A549 cells [1]): an effect not seen
- binding to RSK4-NTKD [4]: failed to bind RSK4
- cell migration/invasiveness (A549 cells [3]): did not impair cell invasiveness

SMILES: CN1C[C@@H]2C[C@H]1CN2c1cc2c(cc1F)c(=O)c(C(=O)O)cn2C1CC1 [danofloxacin]
- activity in RSK4 HTRF-activation assay (inhibitor or inactive) (RSK4 [5]): inactive analogues
- cell migration/invasiveness (A549 cells [3]): did not impair cell invasiveness

SMILES: C[C@H]1COc2c(N3CCN(C)CC3)c(F)cc3c(=O)c(C(=O)O)cn1c23 [levofloxacin]
- hazard ratio for overall survival vs placebo ([6]; adherent patients (n=937), 95% CI 0.69-0.999, p=0.048): 0.83
- hazard ratio in lung and bladder cancer patients compared to the entire cohort ([6]; lung and bladder cancer patients): further improved
- hazard ratio for overall survival vs placebo ([6]; non-adherent patients (n=543), 95% CI 0.89-1.40, p=0.36): 1.11
- median overall survival ([6]; patients adhering to trial treatment (n=937)): 72 months
- activity in RSK4 HTRF-activation assay (inhibitor or inactive) (RSK4 [5]): inhibited RSK4 activation
- cellular cIAP1 and cIAP2 expression (cIAP1 and cIAP2): decreased cellular cIAP1 and cIAP2 expression

SMILES: CN1CCN(c2c(F)cc3c(=O)c(C(=O)O)cn4c3c2OCN4C)CC1 [marbofloxacin]
- activity in RSK4 HTRF-activation assay (inhibitor or inactive) (RSK4 [5]): additional inhibitors

SMILES: COc1c(N2C[C@@H]3CCCN[C@@H]3C2)c(F)cc2c(=O)c(C(=O)O)cn(C3CC3)c12 [moxifloxacin]
- effect on ERK activity (ERK): did not interfere with ERK activity
- IC50 (RSK4 [5]): 6.2 µM
- mode of inhibition of RSK4 activation (RSK4 [5]): non-ATP competitive reversible inhibitor of RSK4 activation
- preference RSK4 activation vs fully-active RSK4 (RSK4 [5]): preference for preventing RSK4 activation rather than inhibiting fully-active RSK4
- selectivity RSK4 vs RSK1 (RSK4 [5]): favoured RSK4 over RSK1
- inhibition at 30 µM (RSK4 [5]; read-out: inhibition of RSK4 activation): > 75%
- α (non-competitive binding to Enzyme and Enzyme-Substrate state) (RSK4 [7]): 1
- effect on ATP Km and Vmax of RSK4 (RSK4 [7]; sub-maximal inhibition): maintained Km and displayed reduced Vmax
- cell migration/invasiveness (A549 cells [3]): shared this ability

SMILES: CCn1cc(C(=O)O)c(=O)c2cnc(N3CCCC3)nc21 [piromidic acid]
- activity in RSK4 HTRF-activation assay (inhibitor or inactive) (RSK4 [5]): inactive analogues

SMILES: CN1CCN(c2c(F)cc3c(=O)c(C(=O)O)cn4c3c2SCC4)CC1 [rufloxacin]
- activity in RSK4 HTRF-activation assay (inhibitor or inactive) (RSK4 [5]): additional inhibitors

SMILES: NC1CCN(c2nc3c(cc2F)c(=O)c(C(=O)O)cn3-c2ccc(F)cc2F)C1 (centres unmarked) [tosufloxacin, tosufloxacin tosylate]
- activity in RSK4 HTRF-activation assay (inhibitor or inactive) (RSK4 [5]): additional inhibitors
- cell migration/invasiveness (A549 cells [3]): shared this ability

SMILES: N[C@@H]1[C@H]2CN(c3nc4c(cc3F)c(=O)c(C(=O)O)cn4-c3ccc(F)cc3F)C[C@@H]12 [trovafloxacin]
- expression of BCL2 and cIAP1/2 (A549 cells [1]): decreased expression of BCL2 and cIAP1/2
- IC50 (RSK4 [5]): 10 µM
- activity in RSK4 HTRF-activation assay (inhibitor or inactive) (RSK4 [5]): additional inhibitors
- caspase activation in response to cisplatin (A549 cells [2]): promotion of caspase activation
- sensitisation of A549 cells to cisplatin (A549 cells [8]; 7.5 μM, cisplatin 12.5 μM for 72 h): reducing the IC50 for cisplatin
- concentration giving maximal potentiation of cisplatin or taxol effects (A549 cells [8]; A549 cells): ≈ 10 μM
- nature of the relationship with cisplatin (A549 cells [8]; A549 cells): synergistic
- activation of RSK1 in cells (RSK1): does not inhibit the activation of RSK1 in cells
- binding to RSK4-NTKD [4]: bound the inactive/dephosphorylated, but not the fully-active
- tumour growth vs vehicle-only (A549-Luc xenograft): significantly (p<0.05) decreased tumour growth
- benefit of combination with cisplatin in explants (bladder cancer explants): beneficial in 3 out of 4 patient-derived bladder cancer explants
- cell migration/invasiveness (A549 cells [3]): reproduced the inhibition of cell migration/invasiveness
- inhibition of other kinases (panel of 140 kinases): No other kinase was substantially inhibited
